The subject of this assay is Gr-1+CD11b+ myeloid cells from Tgfbr2^myeKO. Nature of the assay: Expression of IL-10, IL-4 and PF4 (Western blotting, quantitative PCR) in sorted Gr-1+CD11b+ myeloid cells cultured with pathway inhibitors. The class given is cell-based, mice. Particulars: myeloid cells lacking Tgfbr2, cultured 6 hours with inhibitor; mRNA level and protein level. The procedure:
Gr-1+CD11b+ myeloid cells were sorted with MACS from Tgfbr2^myeKO and cultured for 6 hours with an inhibitor of GSK3 (SB216763, Sigma) or PI3K (LY294002, Calbiochem) at different doses (2, 5, and 10 μM for the GSK3 inhibitor; 5, 10, and 20 μM for the PI3K inhibitor). SB216763 is a potent and selective ATP-competitive inhibitor of the serine/threonine protein kinas GSK α and β. […] GSK3 Western blotting was performed to detect inhibiting activity. The expression of IL-10, IL-4, and PF4 was examined using Western blotting and quantitative PCR.
A general note: Immunoblotting shows a protein as a band on a membrane.

Molecules are shown by their SMILES.

Data on two compounds can be found in patent publication US9868954B2, “Reduction of TGFβ signaling in myeloid cells in the treatment of cancer” (The United States of America, as represented by the …, priority 2011, dated 2018).

Regarding `Cc1ccc2nc(NCCN)c3ncc(C)n3c2c1` [BMS-345541], the “expression of IL-10, IL-4, and PF4” value was “did not show a significant effect”.

With `Cn1cc(C2=C(c3ccc(Cl)cc3Cl)C(=O)NC2=O)c2ccccc21` [SB216763], the “expression of IL-10, IL-4, and PF4” value is “reversed the down-regulation of IL-10, IL-4, and PF4”.
